Patent US4136188A, “Treatment of diabetes with 2-substituted-1,3-diazacyclic compounds” (priority 1976, dated 1979)

Columns and labels:
blood glucose [1] = assay: Hypoglycemic activity: dose-effect relationship in normal rats; type: in vivo, male Wistar rats
Protocol: Five male Wistar rats weighing about 170g were used at each dosage level. […] 2, 3 and 5 hours after administration, a blood sample was taken from the tail vein of the rat and assayed for glucose by the glucose oxidase method.

blood glucose [2] = assay: Glucose tolerance test in normal rats; type: in vivo, male Wistar rats
Protocol: Five male Wistar rats weighing about 200g were used at each dose level. An aqueous solution or suspension of a test compound was orally administered by means of a stomach tube to each rat which had not been fed for 24 hours before administration. […] Blood samples were taken from the tail vein just before and 15, 30, 60 and 90 minutes after glucose loading, and were assayed for blood glucose. The glucose tolerance of the rats was estimated by the increase in blood glucose during the 90 minutes after glucose loading [formula]

platelet aggregation = assay: Inhibitory action on collagen-induced platelet aggregation in platelet rich plasma; type: cell-based; conditions: concentration giving 50% inhibition of reaction rate of collagen-induced platelet aggregation, rat platelet rich plasma, 30° C; read-out: Inhibitory Action ID50
Protocol: Platelet rich plasma was prepared by centrifugation (1000 rpm, 5 min.) of fresh citrated rat blood. Fifty microliters of a solution containing a test compound at various concentrations were added to 0.4 ml of the platelet rich plasma, and the mixture was stirred for 1 minute at 1100 rpm and 30° C. Then, 50 μl of a collagen suspension was added to initiate platelet aggregation, which was measured turbidometrically according to G.V.R. Born (Nature, 194, 927, 1962). The ID50 values represent the concentration (mM) of the compound giving a 50% inhibition of the reaction rate of […] platelet aggregation.

blood glucose [3] = assay: Glucose tolerance test in streptozotocin-induced mildly diabetic rats; type: in vivo, male Wistar rats (streptozotocin diabetic)
Protocol: An aqueous solution or suspension of a test compound was orally administered to male Wistar rats which had not been fed for 24 hours prior to oral administration and which had been rendered diabetic for about 2 months by a single intravenous injection of streptozotocin (20 mg/kg body weight). Control diabetic rats received water. Unfed (fasted) and fed blood glucose levels of the rats were 89 ± 1~103 ± 4 mg/dl and 123 ± 2~189 ± 11 mg/dl, respectively. […] Blood samples were taken from the tail vein just before and 15, 30, 60 and 90 minutes after glucose loading, and were assayed for blood glucose. The glucose tolerance of the rats was estimated by the increase in blood glucose during the 90 minutes after glucose loading, i.e., [formula]

blood glucose [4] = assay: Long-term administration in streptozotocin-induced diabetic rats: fed blood glucose; type: in vivo, male Wistar rats (streptozotocin diabetic); conditions: 485 ± 18 at start, control 415 ± 27
Protocol: (§1) Diabetes was induced in male Wistar rats weighing about 170 g by a single intraperitoneal (60 mg/kg body weight) or intravenous (35 mg/kg) injection of streptozotocin. […] These rats were treated with Compound A, tolubutamide or phenformin at a daily oral dose of 25, 50 or 10 mg/kg body weight, respectively. Control diabetic rats received no treatment. The treatment was started 1 month after streptozotocin injection and continued for 4 (tolubutamide and phenformin) or 5 months (Compound A).
Fed blood glucose levels of the rats were 485 ± 18 mg/dl at the start of the treatment and 415 ± 27 (control group), 423 ± 17 (Compound A group), 447 ± 15 (tolubutamide group) and 425 ± 29 mg/dl (phenformin group) at the end of the experiment.

serum lipids = assay: Long-term administration in streptozotocin-induced diabetic rats: serum lipids; type: in vivo, male Wistar rats (streptozotocin diabetic); conditions: for hyperlipidemia / serum triglyceride tendency (in words): long-term administration, diabetic rats
Protocol: as §1
(§2) At the end of the experiment, the rats were sacrificed for histological examination of the kidneys and the liver and for determination of serum lipids.

[5] = Acute toxicity in rats by oral administration; conditions: rat, in vivo, male Donryu rats, mortality on the 7th day, Litchfield and Wilcoxon
Protocol: Acute Toxicity tests were carried out in rats by oral administration. Each LD50 was calculated from the mortality percentage on the 7th day according to the method of Litchfield and Wilcoxon. Ten male rats of the Donryu strain were used at each dose level.

serum lactate = assay: Effect on serum lactate level; type: in vivo, male Wister rat; conditions: 200 mg/kg daily oral for 4 days; for Percent of Initial Serum Lactate, 24 hrs: just before the 2nd dosing; for Percent of Initial Serum Lactate, 76 hrs: 3 hours after the last dosing
Protocol: An aqueous solution or suspension of a test compound was orally administered to a normal male Wister rat weighing about 200 g at a daily dose of 200 mg/kg body weight for 4 days (5 rats/group). Blood samples were taken consecutively from the tail vein, and were assayed for serum lactate by the method of Hans-Jurgens Hohorst (Methods of Enzymatic Analysis, ed. by Hans Ulrich Bergmayer, Academic Press Inc., New York, 1965).

[6] = tested on: immunoreactive insulin (IRI); assay: Insulin releasing action; type: in vivo, male Wistar rat
Protocol: A saline solution containing a test compound was injected into the femoral vein of a normal male Wistar rat weighing about 200 g under pentobarbital anesthesia (5 rats/group). Control rats received a saline injection. Blood samples were taken from the tail vein before and 10, 20, 30 and 40 minutes after injection of the test compound, and were assayed for immunoreactive insulin (IRI) by the method of C. R. Morgan et al (Diabetes, 12, 115.1963).

kidneys = assay: Long-term administration in streptozotocin-induced diabetic rats: histological examination of the kidneys; type: in vivo, male Wistar rats (streptozotocin diabetic)
Protocol: as §1, §2

[7] = 25 mg/kg oral, fasted normal rats
[8] = 10 mg/kg oral, 1 hour prior to glucose loading
[9] = 10 mg/kg oral, 1 hour prior to glucose loading (1 g/kg i.p.), control 121 ± 14 (A), 127 ± 8 (B, C)
[10] = 10 mg/kg oral, 1 hour prior to glucose loading, control 265 ± 21 (A), 206 ± 18 (B, C)
[11] = 25 mg/kg daily, 5 months, 7 rats
[12] = 25 mg/kg i.v., control 50 ± 8, 0-40 minutes
[13] = 10 mg/kg daily, 4 months, 7 rats, * = significant, p < 0.05 vs. diabetic control
[14] = 20 mg/kg oral, given 30 minutes prior to glucose loading
[15] = 50 mg/kg daily, 4 months, 8 rats

1-methyl-2-benzhydryliminoimidazolidine.hydroiodide [Example 4]
Decrease in blood glucose (% based on the control), 3 hrs (blood glucose [1]; [7]): 32%
Decrease in blood glucose (% based on the control), 5 hrs (blood glucose [1]; [7]): 19%

2-benzhydryliminoimidazolidine hydrochloride [Example 3]
Decrease in blood glucose (% based on the control), 3 hrs (blood glucose [1]; [7]): 39%
Decrease in blood glucose (% based on the control), 5 hrs (blood glucose [1]; [7]): 39%

CN1CCNC1=NC(c1ccccc1)c1ccccc1 [Compound A, 1-methyl-2-benzhydryliminoimidazolidine]
Increase in glucose tolerance (blood glucose [2]; [8]): 52.1%
Increase in blood glucose during the 90 minutes after glucose loading, test compound (head [drawing 13]) (blood glucose [2]; [9]): 58 ± 4
IC50 (platelet aggregation): 320 µM
Improvement of glucose tolerance (blood glucose [3]; [8]): 43.0%
Increase in blood glucose during the 90 minutes after glucose loading, test compound (head [drawing 15]) (blood glucose [3]; [10]): 151 ± 43
Fed blood glucose level at the end of the experiment (blood glucose [4]; 25 mg/kg daily oral, 5 months): 423 ± 17 mg/dL
Serum cholesterol (serum lipids; [11]): 78.7 % of control
Serum free fatty acid (serum lipids; [11]): 86.1 % of control
Serum triglyceride (serum lipids; 25 mg/kg daily, 5 months, 7 rats, * = significant, p < 0.05 vs. diabetic control): 53.0 % of control
LD50 at 168 h [5]: 660 mg/kg
Percent of Initial Serum Lactate, 24 hrs (serum lactate): 114.9%
Percent of Initial Serum Lactate, 76 hrs (serum lactate): 94.6%
Insulin Released [ΣΔIRI (0-40)] ([6]; 25 mg/kg i.v., second column (control 42 ± 19), 0-40 minutes): 208 ± 21 μunit/ml serum

c1ccc(C(CC2=NCCN2)c2ccccc2)cc1 [Compound B, 2-(2,2-diphenylethyl)-2-imidazoline]
Increase in glucose tolerance (blood glucose [2]; [8]): 96.9%
Increase in blood glucose during the 90 minutes after glucose loading, test compound (head [drawing 13]) (blood glucose [2]; [9]): 4 ± 12
IC50 (platelet aggregation): 50 µM
Improvement of glucose tolerance (blood glucose [3]; [8]): 74.8%
Increase in blood glucose during the 90 minutes after glucose loading, test compound (head [drawing 15]) (blood glucose [3]; [10]): 52 ± 12
LD50 at 168 h [5]: 562 mg/kg
Percent of Initial Serum Lactate, 24 hrs (serum lactate): 139.6%
Percent of Initial Serum Lactate, 76 hrs (serum lactate): 113.3%
Insulin Released [ΣΔIRI (0-40)] [6, 12]: 250 ± 13 μunit/ml serum

CN1CCN=C1CC(c1ccccc1)c1ccccc1 [Compound C, 1-methyl-2-(2,2-diphenylethyl)-2-imidazoline]
Increase in glucose tolerance (blood glucose [2]; [8]): 26.0%
Increase in blood glucose during the 90 minutes after glucose loading, test compound (head [drawing 13]) (blood glucose [2]; [9]): 94 ± 8
IC50 (platelet aggregation): 120 µM
Improvement of glucose tolerance (blood glucose [3]; [8]): 17.5%
Increase in blood glucose during the 90 minutes after glucose loading, test compound (head [drawing 15]) (blood glucose [3]; [10]): 170 ± 15
Insulin Released [ΣΔIRI (0-40)] [6, 12]: 214 ± 17 μunit/ml serum

CN1CCN(C(=O)c2ccccc2)C1=NC(c1ccccc1)c1ccccc1 [Compound D, 1-methyl-2-benzhydrylimino-3-benzoylimidazolidine]
IC50 (platelet aggregation): 270 µM
LD50 at 168 h [5]: > 1000 mg/kg

CN1CCN(C(=O)c2cccs2)C1=NC(c1ccccc1)c1ccccc1 [Compound E, 1-methyl-2-benzhydrylimino-3-thienoylimidazolidine]
IC50 (platelet aggregation): 130 µM
LD50 at 168 h [5]: > 1000 mg/kg

CN1CCN(C(=O)c2cccnc2)C1=NC(c1ccccc1)c1ccccc1 [Compound F, 1-methyl-2-benzhydrylimino-3-nicotinoyl-imidazolidine]
IC50 (platelet aggregation): 480 µM

CN1CCCC1=NC(c1ccccc1)c1ccccc1 [Compound Q, Benzhydryl Lactamimide, reference compound]
Insulin Released [ΣΔIRI (0-40)] [6, 12]: 198 ± 16 μunit/ml serum

CN1CCCC1=NC(c1ccccc1)c1ccccc1 [Compound Z, reference compound]
Percent of Initial Serum Lactate, 24 hrs (serum lactate): 152.1%
Percent of Initial Serum Lactate, 76 hrs (serum lactate): 218.8%

[H]/N=C(/N)N/C(=N/[H])NCCc1ccccc1 [Phenformin, phenformin, reference compound]
Decrease in blood glucose (% based on the control), 2 hrs (blood glucose [1]; Dose = 100 mg/kg oral): 10%
Decrease in blood glucose (% based on the control), 3 hrs (blood glucose [1]; Dose = 100 mg/kg oral): 15%
Decrease in blood glucose (% based on the control), 5 hrs (blood glucose [1]; Dose = 100 mg/kg oral): 15%
Fed blood glucose level at the end of the experiment (blood glucose [4]; 10 mg/kg daily oral, 4 months): 425 ± 29 mg/dL
Serum cholesterol (serum lipids; [13]): 180.0 % of control
Serum free fatty acid (serum lipids; [13]): 157.0 % of control
Serum triglyceride (serum lipids; [13]): 225.7 % of control
hyperlipidemia / serum triglyceride tendency (in words) (serum lipids): increased tendency of hyperlipidemia
Percent of Initial Serum Lactate, 24 hrs (serum lactate): 196.6%
Percent of Initial Serum Lactate, 76 hrs (serum lactate): 283.6%

CCCCNC(=O)NS(=O)(=O)c1ccc(C)cc1 [Tolubutamide, tolubutamide, reference compound]
Increase in glucose tolerance (blood glucose [2]; [14]): 31.4%
Increase in blood glucose during the 90 minutes after glucose loading, test compound (head [drawing 13]) (blood glucose [2]; 20 mg/kg oral, given 30 minutes prior to glucose loading (1 g/kg i.p.), control 121 ± 14): 83 ± 14
Improvement of glucose tolerance (blood glucose [3]; [14]): 32.6%
Increase in blood glucose during the 90 minutes after glucose loading, test compound (head [drawing 15]) (blood glucose [3]; 20 mg/kg oral, given 30 minutes prior to glucose loading, 3 rats, control 265 ± 21): 179 ± 23
Decrease in blood glucose (% based on the control), 2 hrs (blood glucose [1]; [7]): 20%
Decrease in blood glucose (% based on the control), 3 hrs (blood glucose [1]; [7]): 24%
Decrease in blood glucose (% based on the control), 5 hrs (blood glucose [1]; [7]): 20%
Fed blood glucose level at the end of the experiment (blood glucose [4]; 50 mg/kg daily oral, 4 months): 447 ± 15 mg/dL
kidney histology: diffuse glomerulosclerosis and tubular alterations (in words) (kidneys): to some extent, deteriorated
Serum free fatty acid (serum lipids; [15]): 133.0 % of control
Serum triglyceride (serum lipids; [15]): 186.8 % of control
Serum cholesterol (serum lipids; 50 mg/kg daily, 4 months, 8 rats, * = significant, p < 0.05 vs. diabetic control): 150.0 % of control
hyperlipidemia / serum triglyceride tendency (in words) (serum lipids): increased tendency of hyperlipidemia
Insulin Released [ΣΔIRI (0-40)] ([6]; 50 mg/kg i.v., control 50 ± 8, 0-40 minutes): 189 ± 26 μunit/ml serum
Insulin Released [ΣΔIRI (0-40)] ([6]; 50 mg/kg i.v., second column (control 42 ± 19), 0-40 minutes): 141 ± 14 μunit/ml serum
